For this experiment, the target named is protein tyrosine kinase v-Abl (Abelson murine leukemia virus, UniProt P00521). Conditions: Library Sub-Set 4 (X-Tyr-X-X-X).
Sequence of protein tyrosine kinase v-Abl (P00521 whole entry): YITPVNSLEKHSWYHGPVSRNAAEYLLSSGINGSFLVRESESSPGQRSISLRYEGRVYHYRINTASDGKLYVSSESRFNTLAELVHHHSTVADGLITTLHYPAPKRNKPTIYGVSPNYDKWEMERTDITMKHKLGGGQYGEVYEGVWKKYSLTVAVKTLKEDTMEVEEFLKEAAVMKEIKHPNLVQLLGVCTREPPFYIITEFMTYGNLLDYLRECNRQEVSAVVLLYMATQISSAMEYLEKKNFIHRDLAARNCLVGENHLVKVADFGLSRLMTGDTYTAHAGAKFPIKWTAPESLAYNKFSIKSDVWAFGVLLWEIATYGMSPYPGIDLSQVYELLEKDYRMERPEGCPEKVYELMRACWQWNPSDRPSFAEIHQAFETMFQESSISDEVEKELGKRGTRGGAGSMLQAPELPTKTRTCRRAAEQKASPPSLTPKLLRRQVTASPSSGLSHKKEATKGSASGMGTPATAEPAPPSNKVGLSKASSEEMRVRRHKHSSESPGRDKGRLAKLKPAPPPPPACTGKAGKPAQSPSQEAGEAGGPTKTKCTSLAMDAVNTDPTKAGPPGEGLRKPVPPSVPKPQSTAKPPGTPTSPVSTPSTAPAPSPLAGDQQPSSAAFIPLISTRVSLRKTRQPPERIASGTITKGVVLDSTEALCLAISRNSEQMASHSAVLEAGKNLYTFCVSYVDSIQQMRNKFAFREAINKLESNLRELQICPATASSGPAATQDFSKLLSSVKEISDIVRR

From the text: In the fourth application of this invention, a recombinant form of the Abelson murine leukaemia virus protein tyrosine kinase v-Abl was used in an in vitro phosphorylation reaction to phosphorylate the library sub-set 4 which scans the sequence −1 to +3 around a zero position tyrosine residue, as previously performed for the ZAP-70 library. Detection of phosphoryrosine was achieved using anti-phosphotyrosine antibody detection in an ELISA assay using tetramethylbenzidine substrate and recording absorbance at 450 nm. […] Deconvolution of the hit peptides was performed as described in WO 97/42216.
Library peptides were phosphorylated in pools of 20 peptides at a final concentration of 1 μM total peptide in 50 mM HEPES, pH 7.5, 0.1% Triton X-100, 100 μM ATP, 10 mM MnCl2, 1 mM DTT and 0.2 mM sodium orthovanadate for 30 minutes at 30° C. These reaction mixtures were then stopped using 100 mM EDTA, 6 mM adenosine, transferred to strepavidin-coated microtiter plates and allowed to bind for 30 minutes at 20° C. Unincorporated reaction products were washed from the plate using PBS/0.1% Tween 20 then plate incubation performed with anti-phosphotyrosine antibody (Sigma mouse monoclonal clone PT66) in 2% BSA/PBS/Tween for 1 hour at 20° C. […] HRP detection was then performed with tetramethylbenzidine (TMB) substrate and measuring absorbance at 450 nm using a spectrophotometer (Dynex MRX). […]

With “Serine-tyrosine-phenylalanine-histamine-glutamine”, the “substrate deconvoluted from library sub-set” value is on record as “active site substrate recognition substrate”.

Source of the values: patent US20020155503A1 (priority 1997, published 2002).
